Reference: PubChem BioAssay AID248 (DTP/NCI, 2004)
Inconclusive results and toxic doses are left out. No stated cut-off is given here; in the data, active means T/C of 150% or more; inactive means T/C below 125%. Numbered stars: 1 amine (or outer) side, 2 acyl side, 3 side chain; on linkers, the order of the positions; unused ones are H or OH. Bridge positions count the residues as written; N and C are the ends. Square brackets hold non-standard residues; d marks the D form. Peptide text beside a SMILES is read from it. I, II: the chains in the order shown. Actinocin(9to1) = Cc1c2oc3c(C)ccc(C(=O)[*:1])c3nc-2c(C(=O)[*:2])c(N)c1=O; NMeV = CN[CH](C(=O)O)C(C)C; Sar = CNCC(=O)O

System: L1210 leukemia ip in BDF1 mice, survival T/C
Experiment: NCI In Vivo Anticancer Drug Screen. Data for tumor model L1210 Leukemia (intraperitoneal) in B6D2F1 (BDF1) mice
Details: endpoint: mean survival time, higher = longer survival
In short: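 Value reflects the ratio of survival in compound-treated mice to survival in vehicle-treated controls, with both groups carrying the same transplanted tumor.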

[1] = dose: 100.0 mg/kg/injection, schedule: Q04DX003 (ip), vehicle: Klucel (hydroxypropylcellulose) (HPC)
[2] = dose: 200.0 mg/kg/injection, schedule: Q04DX003 (ip), vehicle: Klucel (hydroxypropylcellulose) (HPC)
[3] = dose: 400.0 mg/kg/injection, schedule: Q04DX003 (ip), vehicle: Klucel (hydroxypropylcellulose) (HPC)
[4] = dose: 50.0 mg/kg/injection, schedule: Q01DX001 (ip), vehicle: saline
[5] = dose: 100.0 mg/kg/injection, schedule: Q01DX001 (ip), vehicle: saline
[6] = dose: 200.0 mg/kg/injection, schedule: Q01DX001 (ip), vehicle: saline
[7] = dose: 25.0 mg/kg/injection, schedule: Q04DX003 (ip), vehicle: saline
[8] = dose: 50.0 mg/kg/injection, schedule: Q04DX003 (ip), vehicle: saline
[9] = dose: 100.0 mg/kg/injection, schedule: Q04DX002 (ip), vehicle: Klucel (hydroxypropylcellulose) (HPC)

Measured: T/C

O=C(Nc1ccccc1)OC1CCCC1
inactive: [1] 101 % of control | [2] 101 % of control | [3] 96 % of control

NS(=O)(=O)c1ccc(N2CCCCC2)c([N+](=O)[O-])c1
inactive: dose: 100.0 mg/kg/injection, schedule: Q01DX005 (ip), vehicle: other 105 % of control | dose: 200.0 mg/kg/injection, schedule: Q01DX005 (ip), vehicle: other 94 % of control | dose: 400.0 mg/kg/injection, schedule: Q01DX005 (ip), vehicle: other 108 % of control

C[N+](C)(C)Cc1ccccc1C[N+](C)(C)C
inactive: [4] 113 % of control | [5] 101 % of control | [6] 97 % of control

CCOC(=O)CCC(NC(=O)OCc1ccccc1)C(=O)O (centres undefined)
inactive: [1] 91 % of control | [2] 89 % of control

O=C(O)c1ccc(B(O)O)cc1
inactive: [1] 103 % of control | [2] 103 % of control | [3] 93 % of control

C(#[C][Sn]([C]#Cc1ccccc1)([C]#Cc1ccccc1)[C]#Cc1ccccc1)c1ccccc1
inactive: dose: 50.0 mg/kg/injection, schedule: Q01DX009 (ip), vehicle: saline with Tween-80 92 % of control | dose: 100.0 mg/kg/injection, schedule: Q01DX009 (ip), vehicle: saline with Tween-80 103 % of control | dose: 200.0 mg/kg/injection, schedule: Q01DX009 (ip), vehicle: saline with Tween-80 95 % of control

CCCCNCCCC
inactive: [7] 102 % of control | [8] 96 % of control | dose: 100.0 mg/kg/injection, schedule: Q04DX003 (ip), vehicle: saline 94 % of control

COc1cc2c(c(OC)c1OC)-c1ccc(SC)c(=O)cc1C(N(C)C)CC2 (centres undefined)
inactive: dose: 200.0 mg/kg/injection, schedule: Q01DX009 (ip), vehicle: Klucel (hydroxypropylcellulose) (HPC) 93 % of control

CCOC(=O)C(=O)N(CC)CC
inactive: [9] 98 % of control | dose: 200.0 mg/kg/injection, schedule: Q04DX002 (ip), vehicle: Klucel (hydroxypropylcellulose) (HPC) 98 % of control | dose: 400.0 mg/kg/injection, schedule: Q04DX002 (ip), vehicle: Klucel (hydroxypropylcellulose) (HPC) 88 % of control

Nc1ncc([N+](=O)[O-])s1
inactive: dose: 25.0 mg/kg/injection, schedule: Q04DX002 (ip), vehicle: Klucel (hydroxypropylcellulose) (HPC) 95 % of control | [4] 98 % of control | dose: 50.0 mg/kg/injection, schedule: Q04DX002 (ip), vehicle: Klucel (hydroxypropylcellulose) (HPC) 98 % of control | [5] 98 % of control | [9] 115 % of control | [6] 98 % of control

CC(=O)NCCCc1c(C)nc(NC(C)=O)[nH]c1=O
inactive: dose: 25.0 mg/kg/injection, schedule: Q01DX001 (ip), vehicle: saline 94 % of control | [4] 108 % of control | [5] 102 % of control

C=CCCC1(C(C)CC)C(=O)NC(=S)NC1=O (centres undefined)
inactive: dose: 75.0 mg/kg/injection, schedule: Q01DX001 (ip), vehicle: saline 100 % of control | dose: 150.0 mg/kg/injection, schedule: Q01DX001 (ip), vehicle: saline 95 % of control | dose: 300.0 mg/kg/injection, schedule: Q01DX001 (ip), vehicle: saline 100 % of control

CN(C)c1ccc(C(Nc2ccccc2)C(Nc2ccccc2)c2ccc(N(C)C)cc2)cc1 (centres undefined)
inactive: dose: 100.0 mg/kg/injection, schedule: Q01DX001 (ip), vehicle: other 102 % of control | dose: 200.0 mg/kg/injection, schedule: Q01DX001 (ip), vehicle: other 87 % of control | dose: 400.0 mg/kg/injection, schedule: Q01DX001 (ip), vehicle: other 89 % of control

C1CC2CCC[N+]3=C2C(C1)CCC3 (centres undefined)
inactive: dose: 12.0 mg/kg/injection, schedule: Q04DX003 (ip), vehicle: saline 93 % of control | dose: 12.5 mg/kg/injection, schedule: Q01DX009 (ip), vehicle: saline 97 % of control | dose: 25.0 mg/kg/injection, schedule: Q01DX009 (ip), vehicle: saline 101 % of control | [7] 91 % of control | dose: 50.0 mg/kg/injection, schedule: Q01DX009 (ip), vehicle: saline 101 % of control | [8] 101 % of control

CC(=O)OC1CCC2(C)C(=CCC3C2CCC2(C)C3CCC2(O)C(C)=O)C1 (centres undefined)
inactive: dose: 100.0 mg/kg/injection, schedule: Q01DX001 (ip), vehicle: Klucel (hydroxypropylcellulose) (HPC) 101 % of control | dose: 200.0 mg/kg/injection, schedule: Q01DX001 (ip), vehicle: Klucel (hydroxypropylcellulose) (HPC) 97 % of control | dose: 400.0 mg/kg/injection, schedule: Q01DX001 (ip), vehicle: Klucel (hydroxypropylcellulose) (HPC) 98 % of control

COC(=O)c1ccc(=O)oc1
inactive: dose: 50.0 mg/kg/injection, schedule: Q01DX009 (ip), vehicle: gum acacia 105 % of control | dose: 100.0 mg/kg/injection, schedule: Q01DX009 (ip), vehicle: gum acacia 100 % of control | dose: 100.0 mg/kg/injection, schedule: Q04DX003 (ip), vehicle: gum acacia 98 % of control | dose: 200.0 mg/kg/injection, schedule: Q01DX009 (ip), vehicle: gum acacia 88 % of control | dose: 200.0 mg/kg/injection, schedule: Q04DX003 (ip), vehicle: gum acacia 100 % of control

Cc1c2oc3c(C)ccc(C(=O)NC4C(=O)NC(C(C)C)C(=O)N(C)CC(=O)N(C)CC(=O)N(C)C(C(C)C)C(=O)OC4C)c3nc-2c(C(=O)NC2C(=O)NC(C(C)C)C(=O)N(C)CC(=O)N(C)CC(=O)N(C)C(C(C)C)C(=O)OC2C)c(N)c1=O (centres undefined) (I: TV[Sar][Sar][NMeV] / II: TV[Sar][Sar][NMeV]; ester I:1-I:C, II:1-II:C; linker I:N-II:N via Actinocin(9to1); configuration not given here)
inactive: dose: 0.05 mg/kg/injection, schedule: Q01DX009 (ip), vehicle: other 94 % of control | dose: 0.1 mg/kg/injection, schedule: Q01DX009 (ip), vehicle: other 108 % of control | dose: 0.2 mg/kg/injection, schedule: Q01DX009 (ip), vehicle: other 106 % of control | dose: 0.4 mg/kg/injection, schedule: Q01DX009 (ip), vehicle: other 115 % of control | dose: 0.5 mg/kg/injection, schedule: Q01DX001 (ip), vehicle: saline + alcohol 105 % of control | dose: 0.8 mg/kg/injection, schedule: Q01DX009 (ip), vehicle: other 120 % of control | dose: 1.0 mg/kg/injection, schedule: Q01DX001 (ip), vehicle: saline + alcohol 112 % of control | dose: 1.6 mg/kg/injection, schedule: Q01DX009 (ip), vehicle: other 92 % of control | dose: 2.0 mg/kg/injection, schedule: Q01DX001 (ip), vehicle: saline + alcohol 116 % of control | dose: 4.0 mg/kg/injection, schedule: Q01DX001 (ip), vehicle: saline + alcohol 113 % of control | dose: 62.5 micrograms/kg/injection, schedule: Q01DX009 (ip), vehicle: saline + alcohol 105 % of control | dose: 125.0 micrograms/kg/injection, schedule: Q01DX009 (ip), vehicle: saline + alcohol 112 % of control | dose: 188.0 micrograms/kg/injection, schedule: Q04DX003 (ip), vehicle: saline + alcohol 107 % of control | dose: 250.0 micrograms/kg/injection, schedule: Q01DX009 (ip), vehicle: saline + alcohol 119 % of control | dose: 375.0 micrograms/kg/injection, schedule: Q04DX003 (ip), vehicle: saline + alcohol 106 % of control | dose: 750.0 micrograms/kg/injection, schedule: Q04DX003 (ip), vehicle: saline + alcohol 112 % of control | dose: 1500.0 micrograms/kg/injection, schedule: Q04DX003 (ip), vehicle: saline + alcohol 119 % of control

c1ccc(C2=C(c3ccccc3)NC(c3ccccc3)N2)cc1
inactive: dose: 12.5 mg/kg/injection, schedule: Q04DX003 (ip), vehicle: Klucel (hydroxypropylcellulose) (HPC) 102 % of control | dose: 25.0 mg/kg/injection, schedule: Q04DX003 (ip), vehicle: Klucel (hydroxypropylcellulose) (HPC) 100 % of control | dose: 50.0 mg/kg/injection, schedule: Q04DX003 (ip), vehicle: Klucel (hydroxypropylcellulose) (HPC) 98 % of control | [1] 96 % of control
